Data on eight compounds can be found in paper PMC11492828 (RSC Advances, 2024).

Data set [1] deals with human neuroblastoma (SH-SY5Y) cells. Description: Cytotoxicity/cell viability MTT assay. It is filed as cell-based. The note with it: for Nature in cytotoxicity study: MTT.
The target of a further data set is T1, PPAR-γ (Homo sapiens, UniProt P37231).
T1 sequence (P37231 1-505): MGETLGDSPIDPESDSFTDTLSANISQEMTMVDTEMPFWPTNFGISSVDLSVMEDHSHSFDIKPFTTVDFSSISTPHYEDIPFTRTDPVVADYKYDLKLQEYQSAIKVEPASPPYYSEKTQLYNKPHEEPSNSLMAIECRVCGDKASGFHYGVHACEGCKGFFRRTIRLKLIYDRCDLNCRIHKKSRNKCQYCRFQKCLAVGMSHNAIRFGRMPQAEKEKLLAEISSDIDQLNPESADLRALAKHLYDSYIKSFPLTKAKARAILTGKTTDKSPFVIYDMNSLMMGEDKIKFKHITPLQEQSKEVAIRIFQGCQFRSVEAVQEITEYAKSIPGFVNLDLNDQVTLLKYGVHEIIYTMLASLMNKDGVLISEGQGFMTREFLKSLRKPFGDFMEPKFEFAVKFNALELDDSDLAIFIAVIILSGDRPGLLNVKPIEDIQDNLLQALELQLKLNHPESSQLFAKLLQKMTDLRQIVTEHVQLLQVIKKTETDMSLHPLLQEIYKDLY
Description: PPAR-γ transactivation assay. It is filed as cell-based. The note with it: SH-SY5Y cells, 1–16 μM.

Data set [2] concerns Aβ-induced SH-SY5Y cell line. In words: Anti-inflammatory and anti-oxidant activity in the Aβ-induced SH-SY5Y cell line. The class given is cell-based, human. The note with it: 2.5 to 40 μM, vs pioglitazone.
The test system of another data set is TNF-α. Description: Flow cytometric analysis of TNF-α expression in Aβ-induced SH-SY5Y cells. It is filed as cell-based, human. A general note: In flow cytometry, cells or beads pass a laser one at a time.
The next data set relates to IL-6. In words: Flow cytometric analysis of IL-6 expression in Aβ-induced SH-SY5Y cells. The class given is cell-based, human.
The next data set deals with IL-1β. Description: Flow cytometric analysis of IL-1β expression in Aβ-induced SH-SY5Y cells. The class given is cell-based, human.
The test system of the next data set is ROS. Description: Flow cytometric analysis of ROS in Aβ-induced SH-SY5Y cells. It is filed as cell-based, human.
[3] abbreviates: Homo sapiens, SH-SY5Y, read-out: IC50 MTT assay, SH-SY5Y cells.
The mark [4] stands for this setting: read-out: IC50 MTT assay, SH-SY5Y cells.

Molecules are shown by their SMILES. Where two headings read alike, the source gives them in different places. Some results are limits rather than exact numbers.

Consider `COc1cc(/C=C/C(C)=N/O)ccc1OCC(=O)Nc1ccc(Cl)cc1` [Compound 4a, N-(4-Chlorophenyl)-2-(4-((1E,3E)-3-(hydroxyimino)but-1-en-1-yl)-2methoxyphenoxy)acetamide], for which the IC50 is 108 µM in data set [1] (setting [3]) and over 100 µM in data set [1] (setting [4]). In addition, the “Nature in cytotoxicity study” value in data set [1] (SH-SY5Y cells) was “cell proliferative and non-cytotoxic”. The PPAR-γ transcriptional activity result at PPAR-γ was “dose-dependent enhancement”. In addition, the “Anti-inflammatory and anti-oxidant activity (expression of pro-inflammatory cytokines and ROS)” value in data set [2] was “promising anti-inflammatory activity and anti-oxidant activity”.

Consider `COc1cc(/C=C/C(C)=N/O)ccc1OCC(=O)Nc1ccc(C)cc1` [Compound 4b, 2-(4-((1E,3E)-3-(Hydroxyimino)but-1-en-1-yl)-2-methoxyphenoxy)-N-(p-tolyl)acetamide], for which the IC50 in data set [1] (setting [3]) is 112 µM. Further, the “Nature in cytotoxicity study” value in data set [1] (SH-SY5Y cells) is “cell proliferative and non-cytotoxic”.

Take `COc1cc(/C=C/C(C)=N/O)ccc1OCC(=O)Nc1ccccc1` [Compound 4c, 2-(4-((1E,3E)-3-(Hydroxyimino)but-1-en-1-yl)-2-methoxyphenoxy)-N-phenylacetamide]: the IC50 in data set [1] (setting [3]) is 50.7 µM. Further, the “Nature in cytotoxicity study” value in data set [1] (SH-SY5Y cells) is reported as “cytotoxic”.

`COc1cc(/C=C/C(C)=N/O)ccc1OCC(=O)Nc1ccccc1C` [Compound 4e, 2-(4-((1E,3E)-3-(Hydroxyimino)but-1-en-1-yl)-2-methoxyphenoxy)-N-(o-tolyl)acetamide]: in data set [1] (setting [3]), the IC50 was 79.7 µM. Besides, the “Nature in cytotoxicity study” value in data set [1] (SH-SY5Y cells) was “cytotoxic”.

As to `CC(/C=C/c1ccc(OCC(=O)Nc2ccccc2F)cc1)=N\O` [Compound 4f, N-(2-Fluorophenyl)-2-(4-((1E,3E)-3-(hydroxyimino)but-1-en-1-yl)phenoxy)acetamide], in data set [1] (setting [3]), the IC50 turned out to be 66.7 µM. The “Nature in cytotoxicity study” value in data set [1] (SH-SY5Y cells) is “cytotoxic”.

With `COc1cc(/C=C/C(C)=N/O)ccc1OCC(=O)Nc1cccc(C)c1` [Compound 4h, 2-(4-((1E,3E)-3-(Hydroxyimino)but-1-en-1-yl)-2-methoxyphenoxy)-N-(m-tolyl)acetamide], the IC50 in data set [1] (setting [3]) is 150 µM; in data set [1] (setting [4]) it was over 100 µM. For the same compound, in data set [1] (SH-SY5Y cells), the “Nature in cytotoxicity study” value is “cell proliferative and non-cytotoxic”. At PPAR-γ, the PPAR-γ transcriptional activity entry was “dose-dependent enhancement”. Besides, in data set [2], the “Anti-inflammatory and anti-oxidant activity (expression of pro-inflammatory cytokines and ROS)” value is “promising anti-inflammatory activity and anti-oxidant activity”.

Take `CC(/C=C/c1ccc(OCC(=O)Nc2ccccc2)cc1)=N\O` [Compound 4i, 2-(4-((1E,3E)-3-(Hydroxyimino)but-1-en-1-yl)phenoxy)-N-phenylacetamide]: in data set [1] (setting [3]), the IC50 is 82.3 µM. For the same compound, in data set [1] (SH-SY5Y cells), the “Nature in cytotoxicity study” value is “cytotoxic”.

Consider `CCc1ccc(CCOc2ccc(CC3SC(=O)NC3=O)cc2)nc1` (stereo not shown) [Pioglitazone, pioglitazone], for which the TNF-α% cell expression is reported as 67.8% in the data set with TNF-α (Aβ 10 μM + 2.5 μM compound); 53.92% in the data set with TNF-α (Aβ 10 μM + 5 μM compound); 24.85% in the data set with TNF-α (Aβ 10 μM + 10 μM compound); 9.8% with TNF-α (Aβ 10 μM + 20 μM compound); 5.5% with TNF-α (Aβ 10 μM + 40 μM compound). For the same compound, the IL-6% cell expression in the data set on IL-6 (Aβ 10 μM + 2.5 μM compound) is listed as 42.95%; in the data set with IL-6 (Aβ 10 μM + 5 μM compound), 30.23%; in the data set on IL-6 (Aβ 10 μM + 10 μM compound), 15.09%; in the data set on IL-6 (Aβ 10 μM + 20 μM compound), 9.51%; in the data set on IL-6 (Aβ 10 μM + 40 μM compound), 12.31%. For the same compound, the IL-1β% cell expression in the data set with IL-1β (Aβ 10 μM + 2.5 μM compound) worked out at 70.21%; in the data set with IL-1β (Aβ 10 μM + 5 μM compound), 52.38%; in the data set with IL-1β (Aβ 10 μM + 10 μM compound), 32.36%; with IL-1β (Aβ 10 μM + 20 μM compound), 15.15%; with IL-1β (Aβ 10 μM + 40 μM compound) it was 10.76%. In addition, the ROS% cell expression in the data set on ROS (Aβ 10 μM + 2.5 μM compound) worked out at 60.98%; in the data set with ROS (Aβ 10 μM + 5 μM compound), 53.96%; in the data set with ROS (Aβ 10 μM + 10 μM compound) it was 41.78%; with ROS (Aβ 10 μM + 20 μM compound), 21.01%; in the data set with ROS (Aβ 10 μM + 40 μM compound) it was 9.07%.

The IC50 is the point on the concentration scale where inhibition reaches its midpoint.
